Measured values as given in paper PMC11497331 (Glia, 2021).

Tested on: primary microglia from wild-type (WT) mice
Type: cell-based

C=C1[C@@H](C)[C@H]2[C@H](Cc3ccccc3)NC(=O)[C@]23[C@H](OC(C)=O)/C=C/[C@@](C)(O)C(=O)[C@@H](C)C/C=C/[C@H]3[C@@H]1O [cytochalasin D, Cytochalasin D]
effect of cytochalasin D on Aβ uptake: reduced
